Assay: Physical (polymorph) stability of suspension to bead milling and autoclaving, followed by XRPD
Type: physicochemical
Protocol: The following experiment evidences such stability of the claimed molecular crystal.
A 30 mg/ml suspension of the compound having Formula I (referred to as “BOL-303050”) was made in PBS-0.15% Polysorbate 80 and put in a vial. The contents of the vial were milled by 1 mm zirconia milling beads for 5 times, 2 minutes each at 2400 rpm in a DAC 150 FV Speedmixer and shaken to suspend the drug. An aliquot was withdrawn for XRPD (see FIG. 4, suspension milled). The withdrawn aliquot was centrifuged and dried before XRPD scan.
The remainder of the vial contents was autoclaved at 121° c. for 30 minutes. After autoclaving another sample was removed for XRPD (see FIG. 4, suspension milled and autoclaved). Sample was centrifuged and dried before XRPD scan.
To the remaining sample, 1 mm zirconia milling beads were added and the sample was milled 5 times, for 2 minutes each at 2400 rpm in a DAC 150 FV Speedmixer. After bead milling, a sample was removed for XRPD (see FIG. 4, suspension milled, autoclaved then milled again). Sample was centrifuged and dried before XRPD scan.
The remainder was autoclaved at 121° C. for 30 minutes (see FIG. 4, suspension milled, autoclaved, milled again, then autoclaved). Sample was centrifuged and dried before XRPD scan.
Samples were compared to the XRPD spectrum of the original API sample.

SMILES	stability of crystal form, comparison of XRPD spectra (FIG. 4) (further milling and/or autoclaving)	effect of subsequent autoclaving on polymorph by XRPD (milled, autoclaved, milled again, then autoclaved at 121° C. for 30 minutes)	polymorphic change by XRPD on autoclaving (30 mg/ml suspension in PBS-0.15% Polysorbate 80, milled, autoclaved at 121° C. for 30 minutes (initial cycle))	effect of milling on drug polymorph by XRPD (1 mm zirconia milling beads, 5 times, 2 minutes each at 2400 rpm)
COc1ccc(S(=O)(=O)N[C@@H](CNc2nc(C)nc(N3CCC(c4ccc5c(n4)NCCC5)CC3)c2C)C(=O)O)cc1 [claimed novel drug polymorph, (S)-3-(2,5-dimethyl-6-(4-(5,6,7,8-tetrahydro-1,8-naphthyridin-2-yl)piperidin-1-yl)pyrimidin-4-ylamino)-2-(4-methoxyphenylsulfonamido)propanoic acid]	stable	did not affect the claimed novel drug polymorph	–	–
COc1ccc(S(=O)(=O)N[C@@H](CNc2nc(C)nc(N3CCC(c4ccc5c(n4)NCCC5)CC3)c2C)C(=O)O)cc1 [BOL-303050, (S)-3-(2,5-dimethyl-6-(4-(5,6,7,8-tetrahydro-1,8-naphthyridin-2-yl)piperidin-1-yl)pyrimidin-4-ylamino)-2-(4-methoxyphenylsulfonamido)propanoic acid]	–	–	polymorphic changes occurred only during the initial autoclave cycle	did not affect the drug polymorph

— patent publication US20110237605A1, “Molecular Crystal of (4-(1,8-Naphthyridin-2-YL)Piperidin-1-YL)Pyrimidine Derivative” (priority 2010, published 2011)
